From patent US5770407A, “Process for preparing nucleotide inhibitors of glycosyltransferases” (The Scripps Research Institute, priority 1996, dated 1998)
“Also recorded” adds a separate entry of the source. Like-named read-outs stand apart in the source and are kept apart here.

Legend:
[1] = test system: β 1,4-galactosyltransferase; conditions: previous observation, Wong 1992; Srivastava 1993; cited from earlier work
[2] = test system: β 1,4-galactosyltransferase; assay: Inhibition study of β-1,4-galactosyltransferase (UDP-[3H]Gal transfer to N-acetylglucosamine); assay type: biochemical, bovine milk; conditions: for mode of inhibition of β-1,4-galactosyltransferase: HEPES 100 mM, pH 7.4
Experimental: All assays contained 10 mM of MnCl2, 2 mM of UDP-[^3 H]Gal, 5 μL of 0.125 mg/mL galactosyltransferase, 0.5-4 mM of N-acetylglucosamine, 0-0.05 mM of 1, and 100 mM of HEPES buffer (pH 7.4) in a total assay volume of 0.05 mL. Assay was performed at 25° C. Reactions were halted with the addition of 0.3 mL of distilled, de-ionized water after 10 min. The reaction mixtures were passed through a pipette column (2 cm) of Sepadex QAE A-25 with 1 mL of distilled, de-ionized water. The obtained fractions were collected in 10 mL of ScintiVerse I scintillation cocktail. A control reaction without enzyme was used to establish the background, non-enzymatic cleavage rate. A typical control reaction of 41754 cpm UDP-[^3 H]Gal would result in 890 cpm of non-enzymatic column flow through.

FucT V = target: T1, FucT V (Homo sapiens, UniProt Q11128); assay: Pre-incubation of GDP-2F-Fuc with FucT V (slow substrate / inactivator test); assay type: biochemical
T1 sequence (Q11128 1-374): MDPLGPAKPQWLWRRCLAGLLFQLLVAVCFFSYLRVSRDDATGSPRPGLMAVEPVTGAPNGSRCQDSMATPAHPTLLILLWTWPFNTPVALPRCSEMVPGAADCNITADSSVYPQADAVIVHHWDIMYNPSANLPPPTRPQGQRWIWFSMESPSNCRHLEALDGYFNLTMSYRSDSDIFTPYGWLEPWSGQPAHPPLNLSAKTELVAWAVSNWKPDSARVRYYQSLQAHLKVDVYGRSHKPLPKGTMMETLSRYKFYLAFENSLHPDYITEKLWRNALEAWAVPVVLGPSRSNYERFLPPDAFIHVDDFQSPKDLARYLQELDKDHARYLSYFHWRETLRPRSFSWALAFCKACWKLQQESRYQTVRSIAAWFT
Experimental: (§1) The interaction of GDP-2F-Fuc with FucT V was evaluated. The mode of inhibition of FucT V by GDP-2F-Fuc was evaluated by varying the GDP-Fuc concentrations at fixed GDP-2F-Fuc concentrations at a constant LacNAc-b-O--(CH2)5 CO2 CH3 concentration. […] Pre incubation of 0.010 mM GDP-2F-Fuc with the FucT V in the presence of LacNAc-b-O--(CH2)5 CO2 CH3 and MnCl2 was performed for 0-80 minutes. The reactions were initiated with GDP-Fuc and allowed to react for 30 minutes. The percent inhibition remained constant at 58% which is expected for reversible inhibition. If GDP-2F-Fuc was either an inactivator of a slow substrate, then the inhibition would either increase or decrease as a function of time.
A 0.350 mL solution that contained 10 mM MnCl2 , 2.1 munits FucT V, 0.30 mM LacNAc-b-O--(CH2)5 CO2 CH3, 0.010 mM GDP-2F-Fuc, and 100 mM MES (pH 6.0). This solution was subject to incubation at room temperature for various time periods (0, 3, 10, 20, 30, 60, 80 min). After the incubation time, a 0.050 mL aliquot was removed and GDP-[U-^14 C]-fucose was added to a final concentration of 0.050 mM to initiate the fucosyltransfer reaction. After a 30 minute reaction time period, the solution was passed through a Dowex 1 column and the amount of product determined.

[3] = target: T2, α-1,3-fucosyltransferase V (Homo sapiens, UniProt Q11128); assay: Inhibition of α-1,3-fucosyltransferase V (FucT V), GDP-Fuc varied at fixed inhibitor concentrations; assay type: biochemical; conditions: for mode of inhibition of FucT V: GDP-Fuc varied, constant LacNAc acceptor, listed as GDP-2F-Fuc
T2 construct: made in house
T2 sequence (Q11128 1-374): T1 sequence (Q11128 1-374)
Experimental: GDP-Fuc concentration was varied ([…]) and the acceptor sugar, LacNAc-b-O--(CH2)5 CO2 CH3, was kept at twice its km level, 0.6 mM. (Inset) A replot of the slopes as a function of GDP-2F-Fuc concentration is presented as a graphical Ki determination (Ki =x axis intercept).
as §1
Anhydrous pyridine was purchased from Aldrich and used without further purification. N-Acetyllactosamine, Dowex 1-X8, MES, pyruvate kinase, lactate dehydrogenase, PEP, GDP, NADH, guanosine 5'-monophospho-morpholidate 4-morpholine-N,N'-dicyclohexylcarboxamidine salt, GDP-Fuc, and cacodylic acid were purchased from Sigma. Guanosine 5'-diphospho-[U-^14 C]-b-L-fucose was purchased from Amersham Life Science. ScintiVerseI scintillation cocktail and MnCl2.4 H2 O were purchased from Fisher Scientific Company. Protein concentrations were determined with the Coomassie protein staining reagent with albumin standards as purchased from Pierce. The scintillation counter used was the Beckman LS 3801. Fluorescence was measured on a Hitachi F2000 Fluorescence Spectrophotometer. Human a-1,3-fucosyltransferase and LacNAc-b-O--(CH2)5 CO2 CH3 were prepared according to published procedures (Murray et al.(1996) Biochemistry 35, 11183-11195.).
GDP-Fuc concentration was varied ([…]) at fixed concentrations of GDP-2F-Fuc ([…]), and the acceptor sugar, LacNAc-b-O-(CH2)5 CO2 CH3, was kept at twice its Km level, 0.6 mM. Each assay contained 0.3 munit of FucT V and 10 mM MnCl2 in a 100 mM MES buffer (pH 6.0). Reactions were 30 minutes at room temperature.

[4] = test system: β 1,4-galactosyltransferase; conditions: literature: Morrison, Ebner J. Biol. Chem. 1971; read-out: Km of GlcNAc (lit); cited from earlier work

## O=c1ccn([C@@H]2O[C@H](COP(=O)(O)OP(=O)(O)O[C@@H]3C[C@@H](O)[C@@H](O)[C@@H](CO)O3)[C@@H](O)[C@H]2O)c(=O)[nH]1 [2-deoxy derivative]
[1]
  substrate quality for the transferase: good substrate

## O=c1ccn([C@@H]2O[C@H](COP(=O)(O)OP(=O)(O)O[C@H]3O[C@H](CO)[C@H](O)[C@H](O)[C@H]3F)[C@@H](O)[C@H]2O)c(=O)[nH]1 [Compound 1, Uridine 5'-diphospho-2-deoxy-2-fluoro-α-D-galactose]
[2]
  mode of inhibition of β-1,4-galactosyltransferase: competitive inhibitor
[2]; listed as UDP-2F-Gal, 1
  mode of inhibition of β-1,4-galactosyltransferase: potent competitive inhibitor
[2]; listed as UDP-2FGal
  mode of inhibition of β-1,4-galactosyltransferase: competitive inhibitor
[2]; listed as UDP-2FGal 1
  mode of inhibition of β-1,4-galactosyltransferase: competitive inhibition
[2]; competitive inhibition, UDP-Gal, GlcNAc, Mn2+ 10 mM, HEPES 100 mM pH 7.4, 25° C.
  Ki: 41 µM

## C[C@@H]1O[C@H](OP(=O)(O)OP(=O)(O)OC[C@H]2O[C@@H](n3cnc4c(=O)[nH]c(N)nc43)[C@H](O)[C@@H]2O)[C@@H](F)[C@H](O)[C@@H]1O [Compound 21, Guanosine 5'-diphospho-2-deoxy-2-fluoro-β-L-fucose]
FucT V; 0.010 mM GDP-2F-Fuc, pre-incubation 0-80 minutes, 30 minutes reaction, remained constant
  percent inhibition after pre-incubation: 58%
FucT V; incubation with FucT V and acceptor prior to GDP-Fuc
  effect of pre-incubation on the potency of inhibition: no effect
FucT V; pre-incubation with FucT V, acceptor and MnCl2 before GDP-Fuc, listed as GDP-2F-Fuc
  slow substrate or inactivator behaviour: not a slow substrate or an inactivator; also recorded: neither an inactivator nor a slow substrate
[3]
  mode of inhibition of FucT V: potent competitive inhibitor; also recorded: competitive inhibition pattern
[3]; 21
  mode of inhibition of FucT V: potent competitive inhibitor
[3]; compared with inhibitors known to date
  relative potency as FucT V inhibitor: most potent inhibitor of this enzyme to date
[3]; α-1,3-fucosyltransferase V, summary and description
  Ki: 4.2 µM

## CC(=O)N[C@H]1C(O)O[C@H](CO)[C@@H](O)[C@@H]1O (stereo partly shown) [GlcNAc, N-acetylglucosamine, reference compound]
[2]; acceptor GlcNAc, HEPES pH 7.4
  Vmax: 0.14 ± 0.01 µmol/min
[2]; β 1,4-galactosyltransferase, HEPES pH 7.4, read-out: Km of GlcNAc
  Km: 5.3 ± 0.5 mM
[4]
  Km: 6 mM
